Test results: ChEMBL document CHEMBL1914411, “Synthesis of lipophilic dimeric C-7/C-7-linked ciprofloxacin and C-6/C-6-linked levofloxacin derivatives. Versatile in vitro biological evaluations of monomeric and dimeric fluoroquinolone derivatives as potential antitumor, antibacterial or antimycobacterial agents” (Eur J Med Chem, 2011)
In brackets after ≈: the same amount, converted by molar mass. Activity calls are given as the source filed them.

Assays:
Pseudomonas aeruginosa = test: Antimicrobial activity against Pseudomonas aeruginosa CIP 82.118 after 18 to 24 hrs by broth microdilution method; format: functional
[1] = test system: Mycobacterium tuberculosis; test: Antimycobacterial activity against Mycobacterium tuberculosis H37Rv assessed as growth inhibition at 0.1 uM after 6 days by MTT colorimetric microassay; format: functional, organism-based
Staphylococcus aureus [2] = test: Antimicrobial activity against multidrug-resistant Staphylococcus aureus isolate 1 after 18 to 24 hrs by broth microdilution method; format: functional
[3] = test system: Mycobacterium tuberculosis; test: Antimycobacterial activity against Mycobacterium tuberculosis H37Rv assessed as growth inhibition at 10 uM after 6 days by MTT colorimetric microassay; format: functional; conditions: 144 h, read-out: GI
Staphylococcus aureus [4] = test: Antimicrobial activity against methicillin-resistant Staphylococcus aureus ATCC 33592 after 18 to 24 hrs by broth microdilution method; format: functional
Escherichia coli = test: Antimicrobial activity against Escherichia coli CIP 53126 after 18 to 24 hrs by broth microdilution method; format: functional
Staphylococcus aureus [5] = test: Antimicrobial activity against Staphylococcus aureus CIP 4.83 after 18 to 24 hrs by broth microdilution method; format: functional
Enterococcus hirae = test: Antimicrobial activity against Enterococcus hirae CIP 5855 after 18 to 24 hrs by broth microdilution method; format: functional
Staphylococcus aureus [6] = test: Antimicrobial activity against methicillin-resistant Staphylococcus aureus ATCC 33591 after 18 to 24 hrs by broth microdilution method; format: functional
Staphylococcus aureus [7] = test: Antimicrobial activity against multidrug-resistant Staphylococcus aureus isolate 2 after 18 to 24 hrs by broth microdilution method; format: functional
[8] = test system: Mycobacterium tuberculosis; test: Antimycobacterial activity against Mycobacterium tuberculosis H37Rv after 6 days by MTT colorimetric microassay; format: functional, organism-based; conditions: 144 h
[9] = test system: Mycobacterium tuberculosis; test: Antimycobacterial activity against Mycobacterium tuberculosis H37Rv assessed as growth inhibition at 1 uM after 6 days by MTT colorimetric microassay; format: functional; conditions: for inhibition of growth at 1 µM: 144 h, read-out: GI

| Compound | MBC (Pseudomonas aeruginosa) [µM] | MIC (Pseudomonas aeruginosa) [µM] | growth inhibition (GI) [1] | MBC (Staphylococcus aureus [2]) [µM] | MIC (Staphylococcus aureus [2]) [µM] | inhibition of growth at 10 µM [3] [%] | MBC (Staphylococcus aureus [4]) [µM] | MIC (Staphylococcus aureus [4]) [µM] | MBC (Escherichia coli) [µM] | MIC (Escherichia coli) [µM] | MBC (Staphylococcus aureus [5]) [µM] | MIC (Staphylococcus aureus [5]) [µM] | MBC (Enterococcus hirae) [µM] | MIC (Enterococcus hirae) [µM] | MIC (Staphylococcus aureus [6]) [µM] | MBC (Staphylococcus aureus [7]) [µM] | MIC (Staphylococcus aureus [7]) [µM] | MIC [8] [µM] | inhibition of growth at 1 µM [9] [%] | IC50 [8] [nM] | other results |
| --- | --- | --- | --- | --- | --- | --- | --- | --- | --- | --- | --- | --- | --- | --- | --- | --- | --- | --- | --- | --- | --- |
| CCCCCCCC(=O)OCC(=O)N1CCN(c2cc3c(cc2F)c(=O)c(C(=O)O)cn3C2CC2)CC1 | 250 (≈ 129 µg/mL) | 31.2 (≈ 16.1 µg/mL) | inactive | 500 (≈ 258 µg/mL) | 7.8 (≈ 4.02 µg/mL) | > 95 | ≤ 0.001 | ≤ 0.001 | 62.5 (≈ 32.2 µg/mL) | 31.2 (≈ 16.1 µg/mL) | ≤ 0.001 | ≤ 0.001 | ≤ 0.97 | ≤ 0.97 | ≤ 0.001 | 15.6 (≈ 8.04 µg/mL) | 15.6 (≈ 8.04 µg/mL) |  |  |  |  |
| CCCCCCCCCCCCCNC(=O)c1cn2c3c(c(N4CCN(C)CC4)c(F)cc3c1=O)OC[C@@H]2C |  |  | inactive |  |  | > 95 |  |  |  |  |  |  |  |  |  |  |  | > 10 | 5 |  |  |
| CCCCCCCC(=O)OCOC(=O)c1cn2c3c(c(N4CCN(C)CC4)c(F)cc3c1=O)OC[C@@H]2C |  |  | inactive |  |  | > 95 |  |  |  |  |  |  |  |  |  |  |  | 2.5 (≈ 1.29 µg/mL) | 74 | 1300 |  |
| CCCCCCCCC(=O)OCC(=O)N1CCN(c2cc3c(cc2F)c(=O)c(C(=O)O)cn3C2CC2)CC1 | 250 (≈ 132 µg/mL) | 31.2 (≈ 16.5 µg/mL) | inactive | 15.6 (≈ 8.26 µg/mL) | 7.8 (≈ 4.13 µg/mL) | > 95 | 0.02 (≈ 0.0106 µg/mL) | 0.02 (≈ 0.0106 µg/mL) | 500 (≈ 265 µg/mL) | 62.5 (≈ 33.1 µg/mL) | ≤ 0.12 | ≤ 0.12 | ≤ 0.97 | ≤ 0.97 | 0.03 (≈ 0.0159 µg/mL) | 15.6 (≈ 8.26 µg/mL) | 7.8 (≈ 4.13 µg/mL) |  |  |  | MBC (Staphylococcus aureus [6]): 0.24 µM (≈ 0.127 µg/mL) |
| CCCCCCCCCCCCCCCCCCCC(=O)OCOC(=O)c1cn2c3c(c(N4CCN(C)CC4)c(F)cc3c1=O)OC[C@@H]2C |  |  | inactive |  |  |  |  |  |  |  |  |  |  |  |  |  |  |  |  |  | growth inhibition (GI) [9]: inactive |
| C[C@H]1COc2c(N3CCN(C)CC3)c(F)cc3c(=O)c(C(=O)NCCCCCCNC(=O)c4cn5c6c(c(N7CCN(C)CC7)c(F)cc6c4=O)OC[C@@H]5C)cn1c23 | 250 (≈ 201 µg/mL) | 62.5 (≈ 50.2 µg/mL) | inactive |  |  | 60 |  |  | 62.5 (≈ 50.2 µg/mL) | 62.5 (≈ 50.2 µg/mL) | 500 (≈ 401 µg/mL) | 125 (≈ 100 µg/mL) | 125 (≈ 100 µg/mL) | 125 (≈ 100 µg/mL) |  |  |  | > 10 |  |  |  |
| CCCCCCCCCCCCCC(=O)OCOC(=O)c1cn2c3c(c(N4CCN(C)CC4)c(F)cc3c1=O)OC[C@@H]2C | 250 (≈ 150 µg/mL) | 62.5 (≈ 37.6 µg/mL) | inactive |  |  | > 95 |  |  | 15.6 (≈ 9.39 µg/mL) | 15.6 (≈ 9.39 µg/mL) | 3.9 (≈ 2.35 µg/mL) | 7.8 (≈ 4.69 µg/mL) | 15.6 (≈ 9.39 µg/mL) | 15.6 (≈ 9.39 µg/mL) |  |  |  | 2.5 (≈ 1.5 µg/mL) |  | 1300 |  |
| CCCCCCC(=O)N1CCN(c2cc3c(cc2F)c(=O)c(C(=O)O)cn3C2CC2)CC1 | 250 (≈ 111 µg/mL) | 62.5 (≈ 27.7 µg/mL) | inactive | 500 (≈ 222 µg/mL) | 62.5 (≈ 27.7 µg/mL) | > 95 | 0.24 (≈ 0.106 µg/mL) | 0.06 (≈ 0.0266 µg/mL) | 31.2 (≈ 13.8 µg/mL) | 31.2 (≈ 13.8 µg/mL) | ≤ 0.12 | ≤ 0.03 | 31.2 (≈ 13.8 µg/mL) | 31.2 (≈ 13.8 µg/mL) | 0.06 (≈ 0.0266 µg/mL) | > 500 | 250 (≈ 111 µg/mL) |  |  |  | MBC (Staphylococcus aureus [6]): 0.48 µM (≈ 0.213 µg/mL) |
| CCCC(=O)OCOC(=O)c1cn2c3c(c(N4CCN(C)CC4)c(F)cc3c1=O)OC[C@@H]2C |  |  | inactive |  |  | > 95 |  |  |  |  |  |  |  |  |  |  |  | 2.5 (≈ 1.15 µg/mL) | 74 | 1300 |  |
| CCCCCCCCCCCCCCCC(=O)OCOC(=O)c1cn2c3c(c(N4CCN(C)CC4)c(F)cc3c1=O)OC[C@@H]2C |  |  | inactive |  |  |  |  |  |  |  |  |  |  |  |  |  |  |  |  |  | growth inhibition (GI) [9]: inactive |
| CCCCCCCCCCCC(=O)N1CCN(c2cc3c(cc2F)c(=O)c(C(=O)O)cn3C2CC2)CC1 | 250 (≈ 128 µg/mL) | 62.5 (≈ 32.1 µg/mL) | inactive |  |  | > 95 |  |  | 7.8 (≈ 4.01 µg/mL) | 7.8 (≈ 4.01 µg/mL) | 7.8 (≈ 4.01 µg/mL) | 3.9 (≈ 2 µg/mL) | 7.8 (≈ 4.01 µg/mL) | 7.8 (≈ 4.01 µg/mL) |  |  |  |  | 20 |  |  |
| O=C(O)c1cn(C2CC2)c2cc(N3CCNCC3)c(F)cc2c1=O [CIPROFLOXACIN] | ≤ 0.97 | ≤ 0.97 | inactive | 62.5 (≈ 20.7 µg/mL) | 31.2 (≈ 10.3 µg/mL) |  | 0.97 (≈ 0.321 µg/mL) | 0.48 (≈ 0.159 µg/mL) | ≤ 0.97 | ≤ 0.97 | ≤ 0.97 | ≤ 0.97 | 1.9 (≈ 0.63 µg/mL) | ≤ 0.97 | 0.97 (≈ 0.321 µg/mL) | 31.2 (≈ 10.3 µg/mL) | 31.2 (≈ 10.3 µg/mL) | 2.5 (≈ 0.828 µg/mL) |  | 1600 | MBC (Staphylococcus aureus [6]): 1.9 µM (≈ 0.63 µg/mL) |
| CCCCCCCCC(=O)N1CCN(c2cc3c(cc2F)c(=O)c(C(=O)O)cn3C2CC2)CC1 | 250 (≈ 118 µg/mL) | 62.5 (≈ 29.5 µg/mL) | inactive | 500 (≈ 236 µg/mL) | 31.2 (≈ 14.7 µg/mL) | > 95 | 0.24 (≈ 0.113 µg/mL) | 0.12 (≈ 0.0566 µg/mL) | 500 (≈ 236 µg/mL) | 31.2 (≈ 14.7 µg/mL) | ≤ 0.03 | ≤ 0.97 | 31.2 (≈ 14.7 µg/mL) | 31.2 (≈ 14.7 µg/mL) | 0.02 (≈ 0.00943 µg/mL) | 500 (≈ 236 µg/mL) | 31.2 (≈ 14.7 µg/mL) |  |  |  | MBC (Staphylococcus aureus [6]): 0.24 µM (≈ 0.113 µg/mL) |
